From the NIST ThermoML archive (doi:10.1021/je9003959)

Assay: refractive index (Na D-line) (dimensionless); xn = mol fraction of the nth substance listed
Details: 101 kPa, Liquid, Standard Abbe refractometry

CCN1CCCC1=O [1-ethyl-2-pyrrolidinone] + O
refractive index
Details | 293 K | 298 K | 303 K | 313 K | 323 K
x1 = 0.022 | 1.35197 | 1.35144 | 1.34954 | 1.3488 | 1.34707
x1 = 0.05 | 1.37085 | 1.37012 | 1.3694 | 1.36692 | 1.36431
x1 = 0.1 | 1.39584 | 1.39478 | 1.39291 | 1.39022 | 1.38757
x1 = 0.2 | 1.42603 | 1.42432 | 1.42304 | 1.41887 | 1.41711
x1 = 0.3 | 1.44127 | 1.43983 | 1.43715 | 1.4331 | 1.42913
x1 = 0.4 | 1.44975 | 1.44776 | 1.44605 | 1.4418 | 1.43762
x1 = 0.5 | 1.4551 | 1.45307 | 1.45147 | 1.44694 | 1.44273
x1 = 0.6 | 1.45859 | 1.45647 | 1.45435 | 1.45035 | 1.44622
x1 = 0.7 | 1.46118 | 1.459 | 1.4568 | 1.4527 | 1.44864
x1 = 0.8 | 1.46326 | 1.46096 | 1.4586 | 1.45496 | 1.45075
x1 = 0.9 | 1.46478 | 1.4623 | 1.46016 | 1.45641 | 1.45217
x1 = 1 | 1.46461 | 1.46192 | 1.45791 | 1.45415 | 1.45147
